Where two headings read alike, the source gives them in different places. A value given as a limit tells only on which side of the number the result lay.

The target of assay [1] is T1, human thyroid receptor beta ligand-binding domain (LBD) (Homo sapiens, UniProt P10828).
T1 construct: purchased Invitrogen
T1 sequence (P10828 217-461 limits assumed): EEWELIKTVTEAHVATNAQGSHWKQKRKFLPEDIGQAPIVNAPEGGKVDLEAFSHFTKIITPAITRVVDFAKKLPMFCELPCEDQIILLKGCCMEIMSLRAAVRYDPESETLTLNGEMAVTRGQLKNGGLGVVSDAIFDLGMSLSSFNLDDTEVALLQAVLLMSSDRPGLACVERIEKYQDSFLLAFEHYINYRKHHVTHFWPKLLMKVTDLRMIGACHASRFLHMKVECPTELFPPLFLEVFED
Nature of the assay: TR-FRET thyroid receptor beta coactivator assay (THR biochemical assay, Assay 1). The conditions noted are these: for EC50: THR-beta, TR-FRET coactivator assay, read-out: Activity category Assay 1 (EC50, THR-beta agonist); for Emax: read-out: Activity category Assay 1 THRβ (Emax). From the text: (§1) The TR-FRET thyroid receptor beta coactivator assay was used with slight, optimized modifications of the manufacturer's protocol (Invitrogen). The assay uses a terbium-labeled anti-GST antibody, a glutathione-S-transferase (GST) tagged human thyroid receptor, beta or alpha, ligand-binding domain (LBD), and a fluorescein labeled SRC2-2 coactivator peptide. […] The energy transfer is detected as an increase in the fluorescence emission of the fluorescein acceptor, and a decrease in the fluorescence emission of the terbium donor. The assay is performed in a 384-well black plate in a final volume of 20 μL. Serial dilution of various test agonists was performed in DMSO (1% final DMSO concentration) and added to the test plate. Thyroid receptor beta LBD is added to the plate at a final concentration of 1 nM, followed by the mixture of the fluorescein labeled SRC2-2 coactivator peptide, and the terbium-labeled anti-GST antibody at final concentrations of 200 nM and 2 nM respectively. The assay is incubated for 1 hr at rt protected from light.
On the technique in general: In TR-FRET formats the signal depends on donor and acceptor labels being close together.

Assay [2] has as its target T2, human thyroid receptor alpha ligand-binding domain (LBD) (Homo sapiens, UniProt P10827).
T2 construct: purchased Invitrogen
Nature of the assay: TR-FRET thyroid receptor alpha coactivator assay (THR biochemical assay, Assay 1). The conditions noted are these: for EC50: Table 4, THR-alpha, read-out: Activity category Assay 1 (EC50, THR-alpha agonist activity); for Emax: read-out: Activity category Assay 1 THRα (Emax).
Description: as §1

T2 sequence (P10827 163-410 isoform P10827-2 limits assumed, other chains not shown): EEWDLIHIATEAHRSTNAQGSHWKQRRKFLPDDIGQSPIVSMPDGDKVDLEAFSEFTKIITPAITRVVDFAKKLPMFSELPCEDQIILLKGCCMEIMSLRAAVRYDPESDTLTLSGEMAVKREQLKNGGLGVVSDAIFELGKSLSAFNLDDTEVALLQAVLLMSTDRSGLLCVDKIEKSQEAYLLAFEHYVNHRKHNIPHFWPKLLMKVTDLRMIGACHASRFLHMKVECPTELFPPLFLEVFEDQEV

As usually defined, the EC50 is the concentration at which the effect is half-maximal. A word on the Emax: it is the greatest response seen or fitted, relative to the assay's reference. In the case of `N#C[C@@H]1CC[C@H]1c1cc(Oc2c(Cl)cc(-n3nc(N)c(=O)[nH]c3=O)cc2Cl)n[nH]c1=O` (relative stereo) [Compound 105], the EC50 in assay [1] and in assay [2] was 1 to 25 µM each time. The Emax in assay [1] (Table 5, Assay 1, THRβ) was below 50%; in assay [2] (Table 5, THRα), below 50%.
On to `CC(c1ccccc1)c1cc(Oc2c(Cl)cc(-n3nc(N)c(=O)[nH]c3=O)cc2Cl)n[nH]c1=O` (single isomer, unassigned) [Compound 163, 6-Amino-2-(3,5-dichloro-4-((6-oxo-5-(1-phenylethyl)-1,6-dihydropyridazin-3-yl)oxy)phenyl)-1,2,4-triazine-3,5(2H,4H)-dione], for which the EC50 in assay [1] and in assay [2] was above 25 µM each time. In addition, the Emax in assay [1] (Table 5, Assay 1, THRβ) is below 50%; in assay [2] (Table 5, THRα), below 50%.
Consider `Nc1nn(-c2cc(Cl)c(Oc3cc(C4Cc5ccccc54)c(=O)[nH]n3)c(Cl)c2)c(=O)[nH]c1=O` (single isomer, unassigned) [Compound 165, 6-amino-2-(4-((5-(bicyclo[4.2.0]octa-1(6),2,4-trien-7-yl)-6-oxo-1,6-dihydropyridazin-3-yl)oxy)-3,5-dichlorophenyl)-1,2,4-triazine-3,5(2H,4H)-dione], for which the figures for the EC50 in assay [1] and in assay [2] were below 0.05 µM and 0.25 to 1 µM, respectively. Besides, the Emax in assay [1] (Table 5, Assay 1, THRβ) is below 50%; in assay [2] (Table 5, THRα), below 50%.
As to `Nc1nn(-c2cc(Cl)c(Oc3cc(C4Cc5ccccc54)c(=O)[nH]n3)c(Cl)c2)c(=O)[nH]c1=O` (single isomer, unassigned) [Compound 166, 6-amino-2-(4-((5-(bicyclo[4.2.0]octa-1(6),2,4-trien-7-yl)-6-oxo-1,6-dihydropyridazin-3-yl)oxy)-3,5-dichlorophenyl)-1,2,4-triazine-3,5(2H,4H)-dione], the EC50 in assay [1] is 0.05 to 0.25 µM; in assay [2] it was above 25 µM. Further, in assay [1] (Table 5, Assay 1, THRβ), the “Activity category Assay 1 THRβ (Emax)” value was “C (Emax<50%)”. Besides, the “Activity category Assay 1 THRα (Emax)” value in assay [2] (Table 5, THRα) is on record as “C (Emax<50%)”.
As to `CC(c1ccccc1)c1c[nH]c2ccc(Oc3c(Cl)cc(-n4nc(C#N)c(=O)[nH]c4=O)cc3Cl)cc12` (centres unmarked) [Compound 6, 2-(3,5-dichloro-4-[[3-(1-phenylethyl)-1H-indol-5-yl]oxy]phenyl)-3,5-dioxo-4H-1,2,4-triazine-6-carbonitrile], the EC50 in assay [1] and in assay [2] was above 25 µM each time. For the same compound, the Emax in assay [1] (Table 5, Assay 1, THRβ) is below 50%; in assay [2] (Table 5, THRα), below 50%.
With `N#Cc1nn(-c2cc(Cl)c(Oc3ccc4[nH]cc(-c5ccccc5)c4c3)c(Cl)c2)c(=O)[nH]c1=O` [Compound 7, 2-[3,5-dichloro-4-[(3-phenyl-1H-indol-5-yl)oxy]phenyl]-3,5-dioxo-4H-1,2,4-triazine-6-carbonitrile], the concentration for a half-maximal effect (EC50) in assay [1] and in assay [2] was above 25 µM each time. The Emax in assay [1] is below 50%; in assay [2] (Table 5, THRα), below 50%.
Turning to `N#Cc1nn(-c2cc(Cl)c(Oc3ccc4[nH]cc(C(=O)N5CCc6ccccc6C5)c4c3)c(Cl)c2)c(=O)[nH]c1=O` [Compound 22], the half-maximal effective concentration (EC50) in assay [1] and in assay [2] was above 25 µM throughout. In addition, the maximum response (Emax) in assay [1] (Table 5, Assay 1, THRβ) is below 50%; in assay [2] (Table 5, THRα), below 50%.
On to `CCn1nc(-c2cc(Cl)c(Oc3cc(C(C)C)c(=O)[nH]n3)c(Cl)c2)c(=O)[nH]c1=O` [Compound 23], for which the half-maximal effective concentration (EC50) in assay [1] and in assay [2] was 1 to 25 µM each time. Besides, the Emax is below 50% in assay [1] (Table 5, Assay 1, THRβ) and below 50% in assay [2] (Table 5, THRα).
Regarding `CSCc1nn(-c2cc(Cl)c(Oc3cc(C(C)C)c(=O)[nH]n3)c(Cl)c2)c(=O)[nH]c1=O` [Compound 33, 2-[3,5-dichloro-4-[(5-isopropyl-6-oxo-1H-pyridazin-3-yl)oxy]phenyl]-6-[(methylsulfanyl)-methyl]-4H-1,2,4-triazine-3,5-dione], the EC50 in assay [1] and in assay [2] was 0.25 to 1 µM in each case. Moreover, the Emax in assay [1] (Table 5, Assay 1, THRβ) is above 75%; in assay [2] (Table 5, THRα), below 50%.
In the case of `CC(C)c1cc(Oc2c(Cl)cc(-n3nc(CS(C)(=O)=O)c(=O)[nH]c3=O)cc2Cl)n[nH]c1=O` [Compound 34, 2-[3,5-dichloro-4-[(5-isopropyl-6-oxo-1H-pyridazin-3-yl)oxy]-phenyl]-6-(methanesulfonylmethyl)-4H-1,2,4-triazine-3,5-dione], the concentration for a half-maximal effect (EC50) was 1 to 25 µM in assay [1] and above 25 µM in assay [2]. For the same compound, the maximum response (Emax) was below 50% in assay [1] (Table 5, Assay 1, THRβ) and below 50% in assay [2] (Table 5, THRα).
Turning to `Nc1nn(-c2cc(Cl)c(Oc3n[nH]c(=O)cc3-c3cccc(Cl)c3)c(Cl)c2)c(=O)[nH]c1=O` [Compound 68-A, 6-amino-2-(3,5-dichloro-4-((4-(3-chlorophenyl)-6-oxo-1,6-dihydropyridazin-3-yl)oxy)phenyl)-1,2,4-triazine-3,5(2H,4H)-dione], the EC50 in assay [1] and in assay [2] was above 25 µM throughout. Besides, the Emax in assay [1] (Table 5, Assay 1, THRβ) was below 50%; in assay [2] (Table 5, THRα), below 50%.
For the compound `Nc1nn(-c2cc(Cl)c(Oc3n[nH]c(=O)cc3-c3cccc(F)c3)c(Cl)c2)c(=O)[nH]c1=O` [Compound 69-A, 6-amino-2-(3,5-dichloro-4-((4-(3-fluorophenyl)-6-oxo-1,6-dihydropyridazin-3-yl)oxy)phenyl)-1,2,4-triazine-3,5(2H,4H)-dione], the concentration giving a half-maximal response (EC50) in assay [1] and in assay [2] was above 25 µM in each case. In addition, the Emax in assay [1] (Table 5, Assay 1, THRβ) was below 50%; in assay [2] (Table 5, THRα) it was below 50%.
`Cc1cccc(-c2cc(=O)[nH]nc2Oc2c(Cl)cc(-n3nc(N)c(=O)[nH]c3=O)cc2Cl)c1` [Compound 70-A, 6-amino-2-(3,5-dichloro-4-((6-oxo-4-(m-tolyl)-1,6-dihydropyridazin-3-yl)oxy)phenyl)-1,2,4-triazine-3,5(2H,4H)-dione]: the EC50 in assay [1] and in assay [2] was above 25 µM each time. In addition, the maximal response (Emax) is below 50% in assay [1] (Table 5, Assay 1, THRβ) and below 50% in assay [2] (Table 5, THRα).
Regarding `CCc1cccc(-c2cc(=O)[nH]nc2Oc2c(Cl)cc(-n3nc(N)c(=O)[nH]c3=O)cc2Cl)c1` [Compound 71-A, 6-Amino-2-(3,5-dichloro-4-((4-(3-ethylphenyl)-6-oxo-1,6-dihydropyridazin-3-yl)oxy)phenyl)-1,2,4-triazine-3,5(2H,4H)-dione], the EC50 in assay [1] and in assay [2] was above 25 µM throughout. For the same compound, the Emax in assay [1] (Table 5, Assay 1, THRβ) is below 50%; in assay [2] (Table 5, THRα), below 50%.
Take `CC(C)c1cc(Oc2c(Cl)cc(-n3nc(C#N)c(=O)[nH]c3=O)c3c2CC3)n[nH]c1=O` [Compound 78, 2-[4-Chloro-5-[(5-isopropyl-6-oxo-1H-pyridazin-3-yl)oxy]bicyclo[4.2.0]octa-1(6),2,4-trien-2-yl]-3,5-dioxo-4H-1,2,4-triazine-6-carbonitrile]: the values for the EC50 in assay [1] and in assay [2] were 0.25 to 1 µM and 1 to 25 µM, respectively. The maximal response (Emax) was below 50% in assay [1] (Table 5, Assay 1, THRβ) and below 50% in assay [2] (Table 5, THRα).
Take `Nc1nn(-c2cc(Cl)c(Oc3cc(-c4ccc5nnccc5c4)c(=O)[nH]n3)c(Cl)c2)c(=O)[nH]c1=O` [Compound 108]: the EC50 in assay [1] and in assay [2] was above 25 µM each time. In addition, the maximum response (Emax) was below 50% in assay [1] (Table 5, Assay 1, THRβ) and below 50% in assay [2] (Table 5, THRα).
As to `Nc1nn(-c2cc(Cl)c(Oc3n[nH]c(=O)cc3-c3ccc4nnccc4c3)c(Cl)c2)c(=O)[nH]c1=O` [Compound 109], the concentration for a half-maximal effect (EC50) in assay [1] and in assay [2] was above 25 µM throughout. Besides, the Emax was below 50% in assay [1] (Table 5, Assay 1, THRβ) and below 50% in assay [2] (Table 5, THRα).
On to `Nc1nn(-c2cc(Cl)c(Oc3cc(-c4ccc5ccnnc5c4)c(=O)[nH]n3)c(Cl)c2)c(=O)[nH]c1=O` [Compound 110], for which the EC50 in assay [1] and in assay [2] was above 25 µM in each case. In addition, the Emax was below 50% in assay [1] (Table 5, Assay 1, THRβ) and below 50% in assay [2] (Table 5, THRα).
Consider `Nc1nn(-c2cc(Cl)c(Oc3n[nH]c(=O)cc3-c3ccc4ccnnc4c3)c(Cl)c2)c(=O)[nH]c1=O` [Compound 111], for which the EC50 in assay [1] and in assay [2] was above 25 µM throughout. In addition, the maximal response (Emax) in assay [1] (Table 5, Assay 1, THRβ) is below 50%; in assay [2] (Table 5, THRα), below 50%.
As to `Nc1nn(-c2cc(Cl)c(Oc3cc(-c4ccc5ccnn5c4)c(=O)[nH]n3)c(Cl)c2)c(=O)[nH]c1=O` [Compound 122], the 50% effective concentration (EC50) in assay [1] and in assay [2] was 1 to 25 µM in each case. Further, the maximum response (Emax) in assay [1] (Table 5, Assay 1, THRβ) was below 50%; in assay [2] (Table 5, THRα), below 50%.
As for `Nc1nn(-c2cc(Cl)c(Oc3n[nH]c(=O)cc3-c3ccc4ccnn4c3)c(Cl)c2)c(=O)[nH]c1=O` [Compound 123], the EC50 in assay [1] and in assay [2] was above 25 µM in each case. Besides, the Emax is below 50% in assay [1] (Table 5, Assay 1, THRβ) and below 50% in assay [2] (Table 5, THRα).
On to `Nc1nn(-c2cc(Cl)c(Oc3n[nH]c(=O)cc3-c3ccn4nccc4c3)c(Cl)c2)c(=O)[nH]c1=O` [Compound 125], for which the EC50 in assay [1] is 1 to 25 µM; in assay [2], above 25 µM. For the same compound, the Emax in assay [1] (Table 5, Assay 1, THRβ) was below 50%; in assay [2] (Table 5, THRα), below 50%.
With `Nc1nn(-c2cc(Cl)c(Oc3cc(-c4ccn5cncc5c4)c(=O)[nH]n3)c(Cl)c2)c(=O)[nH]c1=O` [Compound 126], the half-maximal effective concentration (EC50) in assay [1] and in assay [2] was above 25 µM each time. The maximum response (Emax) in assay [1] (Table 5, Assay 1, THRβ) is below 50%; in assay [2] (Table 5, THRα), below 50%.

For the origin of these results see patent US12180192B2, “Modulators of THR-β and methods of use thereof” (ALIGOS THERAPEUTICS, INC., priority 2019, dated 2024).
